From patent publication US10499648B2, “Sterilization method, formulation for sterilization use, and device for producing sterilizing liquid” (priority 2014, dated 2019)

Tests used:
Escherichia coli = assay: Sterilization effect of synthesized peroxynitric acid on Escherichia coli (FIG. 8); assay type: cell-based; settings: peroxynitric acid approximately 0.02 mM or higher; pH 3.5; 25° C.; from 7 orders to 2 orders or less (detection limit)
Protocol: In FIGS. 8, 9, and 11, solution of peroxynitric acid has a pH value of 3.5 and a temperature of 25° C. In the heat treatment of FIG. 10, the solution of peroxynitric acid is heated for thirty minutes to have a temperature of 60° C.
(§1) In this experiment, the detection limit was reached when the number of living microorganisms was in 2 orders of magnitude or less, then further sterilization effect was not measured. Thus, if the concentration of the synthesized peroxynitric acid is further increased, the number of living microorganisms is expected to be further reduced. In the experiment, diluted solution of the synthesized peroxynitric acid was used. If undiluted solution is used, more powerful microbicidal activity is expected to be exerted. The peroxynitric acid synthesized in the fourth embodiment has a concentration of 420 mM. For example, using undiluted solution of the synthesized peroxynitric acid probably lowers the number of living microorganisms to further […] of magnitude or more.

[1] = Activation energy in decomposition response, compared with literature value; assay type: physicochemical
Protocol: As for the substance corresponding to the retention time RT of 2.8 minutes shown in FIG. 5, an activation energy in decomposition response thereof was actually measured. The activation energy measured was compared to an activation energy in decomposition response of peroxynitric acid. The comparison result is provided as follows: • Actual measured value: 109 kJ/mol • Literature value: 110 kJ/mol • Both the values are in good accord with each other. Thereby, the substance corresponding to the retention time RT of 2.8 minutes is probably peroxynitric acid.
The activation energy in decomposition response herein was cited from the following document.
J. Phys. Chem. A 1997, 101, 8822-8829 “Peroxynitric Acid Decay Mechanisms and Kinetics at Low pH”.

[2] = Lifetime / decomposition of synthesized peroxynitric acid depending on temperature; assay type: physicochemical; settings: solution at 0° C.
From the text: The synthesis reaction of peroxynitric acid progresses also at a room temperature. To be specific, peroxynitric acid is synthesized at a room temperature; however, the lifetime of the synthesized peroxynitric acid depends on temperature. Where being saved at a room temperature, the synthesized peroxynitric acid is quickly decomposed to turn into nitric acid in a short time. When the temperature rises by 5 degrees, the rate of decomposition doubles. For example, the rate of decomposition at a temperature of 20° C. is 16 times as fast as that at a temperature of 0° C. (zero). Thus, the synthesized peroxynitric acid turns into nitric acid solution very quickly at a temperature of 50° C. The half-life of the peroxynitric acid is 10 minutes or so at a room temperature. The half-life of the peroxynitric acid is a few hours (2 to 3 hours or so) at a temperature of 0 (zero) degrees.
In order to preserve the solution with the biocidal activity maintained, it is preferable to set the temperature of the solution as low as possible. For example, the solution is adjusted to have a temperature of 0° C., which enables the solution to be stored/preserved for a couple of hours, for example, for 5 to 8 hours or so. Freezing the solution allow the solution to be preserved for a longer time.

[3] = Sterilization effect after adding enzyme for disappearing superoxide anion radicals
From the text: The peroxynitric acid in the solution is probably a precursor which produces the superoxide anion radicals (O2—.). The superoxide anion radicals (O2—.) are probably precursors which produce the hydroperoxy radicals (HOO.).

Bacillus subtilis spore = assay: Sterilization effect of synthesized peroxynitric acid on Bacillus subtilis spore (FIGS. 9-11); assay type: cell-based; settings: for drop of the number of living microorganisms in Bacillus subtilis spore: peroxynitric acid approximately 0.5 mM or higher, pH 3.5
Protocol: Where the solution of the synthesized peroxynitric acid has a pH value of 3.5 and the peroxynitric acid has a concentration of approximately 0.5 mM or higher, the number of living microorganisms in Bacillus subtilis spore drops from 6 orders of magnitude to 2 orders of magnitude or less, which indicates a drop of 4 orders of magnitude or more.
as §1

[4] = J. Phys. Chem. A 1997, 101, 8822-8829; cited from earlier work
[5] = Time needed for sterilization depending on solution temperature; settings: solution temperature 30° C.
Protocol: Where the solution has a temperature of 10° C. or lower, the solution may be applied to an object to be sterilized with the temperature remaining unchanged. It is also possible to raise the temperature of the solution to 20° C. or more at the time of application of the solution to the object to be sterilized. It is preferable for the solution to have a lower temperature in order to preserve peroxynitric acid, but at the same time, is preferable for the solution to have a certain level of high temperature for sterilization. To be specific, while the solution having a temperature of 0° C. needs time to sterilize the object, the solution having a temperature of 30° C. needs only 20 seconds to sufficiently sterilize the object. When the situation permits to take time to sterilize the object, it is preferable to perform sterilization at a low temperature. When quick sterilization is needed, it is preferable to raise the temperature, for example, to 30 through 40° C.

[6] = equilibrium O2-. + H+ <-> HOO.; cited from earlier work

| Molecule | drop of the fungicidal concentration (number of living microorganisms) of Escherichia coli (Escherichia coli) | activation energy in decomposition response, actual measured value [1] | time the solution can be stored/preserved with biocidal activity maintained [2] | sterilization effect with enzyme for disappearing superoxide anion radicals in the solution [3] | drop of the number of living microorganisms in Bacillus subtilis spore (Bacillus subtilis spore; FIG. 9, 25° C., from 6 orders to 2 orders or less (detection limit)) | drop of the number of living microorganisms in Bacillus subtilis spore (Bacillus subtilis spore; FIG. 10) | number of living microorganisms in Bacillus subtilis spore (Bacillus subtilis spore; FIG. 10, solution pH 6.5, stays in 6 orders of magnitude) | sterilization effect on Bacillus subtilis spore after heat treatment (Bacillus subtilis spore; FIG. 11, peroxynitric acid heated thirty minutes to 60° C., count stays in 6 orders of magnitude) | activation energy in decomposition response, literature value [4] | time needed to sufficiently sterilize the object [5] | pKa (acid dissociation constant) [6] |
| --- | --- | --- | --- | --- | --- | --- | --- | --- | --- | --- | --- |
| peroxynitric acid | ≥ 5 orders | 26.1 kcal/mol | 5 to 8 h | sterilization effect is not observed | ≥ 4 orders | ≥ 4 orders of magnitude | approximately constant independently of the concentration of the peroxynitric acid | disappearance of sterilization effect | 26.3 kcal/mol | 20 s | – |
| [O]O [hydroperoxy radicals (HOO.), hydroperoxy radicals] | – | – | – | – | – | – | – | – | – | – | 4.8 |
